In ChEMBL document CHEMBL1759879, “A new quinoline derivative with cytotoxic activity from Streptomyces sp. neau50” (Bioorg Med Chem Lett, 2011) one finds IC50 and Activity data, which are given here for 1 compound.

≈ marks a conversion by molar mass, not a printed value. Calls of active or inactive are those of the source. The calls are words filed in the database; no cut-off is given here.

In experiment [1] the test system is A549. Description: Cytotoxicity against human A549 cells after 72 hrs colorimetric assay. The format is functional, cell-based. Particulars: A549, 72 h.
For experiment [2], the system named is Candida albicans. Description: Antimicrobial activity against Candida albicans at 10 uM by agar diffusion method. The format is functional, organism-based.
The subject of experiment [3] is Staphylococcus epidermidis. The experiment can be described thus: Antimicrobial activity against Staphylococcus epidermidis at 10 uM by agar diffusion method. The format is functional, organism-based. A general note: In agar diffusion tests the substance spreads into inoculated agar from a disc or well.

In the case of `COC(=O)c1cc(C)nc2c(CCC(C)(C)OC)cccc12`, in experiment [1], half-maximal inhibition (IC50) was put at 29.3 µg/mL (≈ 97.2 µM). The outcome in experiment [2] and in experiment [3] was inactive.

One may read the IC50 as the concentration at which inhibition is half-maximal. A low value points to greater potency.
